Data on two compounds can be found in publication PMC6114103, “17-DMAG inhibits the multiplication of several Babesia species and Theileria equi on in vitro cultures, and Babesia microti in mice” (International Journal for Parasitology: Drugs and Drug …, 2018).

Structures are written as SMILES. Where only a bound is given, the exact number is not on record here.

The test system of data set [1] is T. equi (USDA strain). Kind of data set: in vitro multiplication inhibition assay (SYBR Green I fluorescence, 96 h), single drugs and two-drug combinations. Format: cell-based, Theileria equi. Particulars: for IC50: Theileria equi, T. equi, 96 h, triplicate, mean ± SD, read-out: IC50 on in vitro culture of parasites; for Selectivity index MDBK: ratio IC50 MDBK to IC50 T. equi; for Selectivity index NIH/3T3: ratio IC50 NIH/3T3 to IC50 T. equi. Here is the method: Babesia parasite cultures were maintained using a microaerophilic stationary-phase culture system ([Levy and Ristic, 1980]; [Avarzed et al., 1997]; [Igarashi et al., 1998]). Briefly, bovine Babesia parasites were grown in bovine red blood cells (RBC) in the specific complete medium for each species. The medium for B. bovis (Texas strain) contained GIT medium supplemented with 10% bovine serum, while the medium for B. bigemina (Argentina strain) and B. divergens (Germany strain) was Medium 199 and RPMI 1640 medium, respectively, supplemented with 40% bovine serum ([Rizk et al., 2016]). B. caballi (USDA strain) was grown using equine RBC in GIT medium supplemented with 10% equine serum. T. equi (USDA strain) was grown in equine RBC in M199 medium supplemented with 40% equine serum and hypoxanthine (MP Biomedicals, USA) at a final concentration of 13.6 μg/ml. All of the media included 60 U/ml penicillin G, 60 μg/ml streptomycin, and 0.15 μg/ml amphotericin B (Sigma-Aldrich, USA). The cultures were incubated at 37 °C in a humidified chamber with an atmosphere of 5% CO2, 5% O2, and 90% N2.
The assays were conducted in accordance with the protocol described previously with modification ([Guswanto et al., 2014]). Briefly, the cultures of B. bovis, B. bigemina, B. divergens, B. caballi, and T. equi with a parasitemia of 8%, 3%, 10%, 4%, and 9%, respectively, were harvested and adjusted to 1% parasitemia with fresh RBC before the inhibition assay. The 60 inner wells of a 96-well plate were used in the assay, while the peripheral wells were filled with sterile distillate water to reduce evaporation during incubation. To each well in triplicate, 2.5 μl of infected RBC (5 μl for B. divergens, B. caballi, and T. equi) was added and mixed with a culture medium containing the drug to a total volume of 100 μl. The stock solution of 17-DMAG, DA, and AV was dissolved in a culture medium at various concentrations using two-fold dilution. A culture medium containing DMSO at a final concentration of 0.2% was added to the well with infected RBC as a positive control and to the well with uninfected RBC as a negative control. Furthermore, a drug combination assay was conducted in parallel with the single drug assay at the constant ratio in accordance with the Chou–Talalay method ([Chou, 2006]). In the same plate with a single drug inhibition assay, a two-drug combination (DA+17-DMAG, DA + AV, and 17-DMAG + AV) at concentrations of 0.25 x IC50, 0.5 x IC50, IC50, 2 x IC50, and 4 x IC50 was added to the well containing infected RBC in triplicate. The plate was incubated in a humidified incubator with 5% CO2, 5% O2, and 90% N2. After 96 h, 100 μl of a lysis buffer containing SYBR Green I was added to each well. The plate was wrapped with aluminum foil to avoid direct light exposure and incubated at room temperature. After incubation for 6 h, fluorescence values were measured using a fluorescence spectrophotometer (Fluoroskan Ascent, Thermo Fisher Scientific, USA) with the excitation and emission wavelength at 485 nm and 518 nm, respectively. The fluorescence data were subtracted from the negative control and used to calculate the IC50.
The IC50 of 17-DMAG, DA, and AV was calculated from the percentage of inhibition on the in vitro multiplication of all tested species using non-linear regression (curve fit), available in GraphPad Prism (GraphPad Software Inc., USA). Combination index (CI) values for the drug combination were calculated using CompuSyn software ([Chou, 2006]). Since the chemotherapy effect is preferable at the highest inhibition, the degree of synergism was determined as the weighted average of CI values using a formula ((1 x IC50) + (2 x IC75) + (3 x IC90) + (4 x IC95))/10 ([Chou, 2006]). The differences among groups regarding the parasitemia, hematology profiles, and body weight in the B. microti–infected mouse model were analyzed using Student's t-test, available in GraphPad Prism software.

Data set [2] deals with T. equi. Kind of data set: effect of 17-DMAG on host erythrocytes: parasite subculture in pretreated equine RBC. The format is cell-based, Theileria equi. Particulars: equine RBC incubated with 1 μM for 3 h, parasitemia 4 days. As for the experimental part:
(§1) Prior to the subculture of parasites, bovine and equine RBC were incubated with 1 μM of 17-DMAG for 3 h. The RBC were washed three times with PBS and mixed with B. bovis and T. equi parasitized RBC to obtain 1% parasitemia (infected RBC). Subsequently, 100 μl of infected RBC was added to 900 μl of complete medium in a 24-well plate. The untreated erythrocytes were used as a control. The parasitemia was monitored daily via microscopy observation of a Giemsa-stained blood smear for 4 days. Furthermore, the effect of 17-DMAG on mice was evaluated using 8-week-old BALB/c mice. Groups 1 and 2, consisting of three mice each, received intraperitoneal injections of 17-DMAG at a concentration of 15 and 30 mg/kg BW, respectively, for 5 days. One group (three mice) remained as an untreated control.

In data set [3] the test system is B. bovis. Kind of data set: effect of 17-DMAG on host erythrocytes: parasite subculture in pretreated bovine RBC. Particulars: bovine RBC incubated with 1 μM for 3 h, parasitemia 4 days. The format is cell-based, Babesia bovis. Here is the method:
as §1

Data set [4] in a line: effect of 17-DMAG on uninfected mice. The format is in vivo, BALB/c mice. Here is the method:
as §1

For data set [5] the following is noted: introduction, background statement; ref Jilani et al., 2013; cited from earlier work.

In general, IC50 refers to the concentration that inhibits the measured activity by half. `O=C1C(O)=C([C@H]2CC[C@H](c3ccc(Cl)cc3)CC2)C(=O)c2ccccc21` [AV, atovaquone]: in data set [1], the half-inhibitory concentration (IC50) came to 95 ± 65 nM, the “Selectivity index MDBK” value is on record as above 421 and the “Selectivity index NIH/3T3” value is on record as above 421.
With `CO[C@H]1/C=C\C=C(/C)C(=O)NC2=CC(=O)C(NCCN(C)C)=C(C[C@@H](C)C[C@H](OC)[C@H](O)[C@@H](C)/C=C(\C)[C@@H]1OC(N)=O)C2=O` [17-DMAG, 17-dimethylaminoethylamino-17-demethoxygeldanamycin], the “multiplication of T. equi in 17-DMAG-treated RBC versus normal RBC” value in data set [2] is recorded as “did not significantly differ”. The “multiplication of B. bovis in 17-DMAG-treated RBC versus normal RBC” value in data set [3] is listed as “did not significantly differ”. For the same compound, in data set [4] (15 mg/kg BW intraperitoneal for 5 days), the mouse body weight result was “did not show any effect”. For the same compound, the mouse body weight result in data set [4] (30 mg/kg BW intraperitoneal for 5 days, day 10 post treatment, not significantly different from control) is recorded as “reduced slightly”. In addition, the solubility entry in data set [5] is reported as “water soluble”. In data set [1], the half-maximal inhibitory concentration (IC50) was found to be 308 ± 7.2 nM, the “Selectivity index MDBK” value was found to be 29 and the “Selectivity index NIH/3T3” value was determined as 50.
